Results: article PMC4213378, “Pharmacokinetics and Efficacy of the Spleen Tyrosine Kinase Inhibitor R406 after Ocular Delivery for Retinoblastoma” (Pharmaceutical Research, 2014)

Experiments:
RB355 cells = test: EdU incorporation (DNA synthesis) in RB355 cells; assay type: cell-based; settings: 5 μM R406, 0-72 h exposure
Method: To determine if the lack of evidence of efficacy of subconjunctival R406 in a solution formulation was due to suboptimal ocular exposure, we performed a pharmacokinetic experiment. Briefly, 10 μl of R406 solution formulation was delivered to each eye of 15 mice and the plasma and vitreous were harvested at different time points (0.5, 1, 2, 4, and 8 h). The concentration of R406 was measured at each time point in each tissue and the concentration of drug was plotted as a function of time (Fig. 2). The 4 h and 8 h data are not shown, as the majority of R406 concentrations in these samples were BLOQ. […] Importantly, the maximal concentration achieved (0.05 μM) was well below the concentration required to kill the most sensitive retinoblastoma cell line (RB355 in culture, Fig. S3). RB355 cells in culture were treated with DMSO, 1, 2.5, or 5 μM of R406 for varied exposure durations (0, 6, 12, 24, 48 and 72 h). […] Incorporation of 5-ethynyl-2′-deoxyuridine (EdU) was used to detect DNA synthesis. […] Viability of RB355 cells in culture is reduced to 50% of the viability of DMSO treated cells when exposed to 2.5 μM R406 for an exposure duration between 24 and 48 h or 5 μM R406 for an exposure duration between 12 and 24 h.
RB335 cells were seeded in 6-well dishes. […] Luminescence was read after 15 min on an Envision plate reader (Perkin Elmer). […]

[1] = Storage stability of R406 in murine vitreous samples; assay type: physicochemical, mouse
Method: Stability: The extracted solution stability of R406 from murine plasma or vitreous was assessed at low (41.2nM), medium (370.4 nM), and high (3333.3 nM) concentrations in triplicate at room temperature. Blank murine plasma was spiked with the indicated concentrations of R406 and extracted solutions were stored at room temperature for day 0, and day 2. The short-term stability of R406 in murine plasma or vitreous at -20 °C was assessed at three concentrations in triplicate. […] internal standard/acetonitrile as described previously: for murine plasma samples, 50 µL of sample was quenched by addition of 100 µL of 5 mg/L OSI-906 (internal standard) in 100% acetonitrile, followed by plate sealing, shaking and centrifuging, transfer of 100 µL of supernatant injection of 10 µL of supernatant onto the LC–MS/MS system; for murine vitreous samples, 5 µL of sample quenched by addition of 45 µL of 5 mg/L OSI-906 (internal standard) in 100% acetonitrile, followed by plate sealing, shaking and centrifuging, transfer of 40 µL of supernatant injection of 10 µL of supernatant onto the LC–MS/MS system. Long term stability of R406 in murine plasma or vitreous at −80 °C was assessed. Unextracted spiked murine plasma or vitreous at low, medium, and high levels was frozen at −80 °C for 0, 7, and 14 days. Samples were thawed immediately extracted with acetonitrile/OSI-906, and quantitated. All samples were analyzed in triplicates.

[2] = tested on: RB355 retinoblastoma cells; test: RB355 cell viability (Cell Titer Glo) after varied exposure durations; assay type: cell-based
Method: RB355 retinoblastoma cells were maintained in RPMI medium (Lonza RPMI-1640) supplemented with 10% FBS (Equitech-Bio), penicillin, streptomycin, and glutamate (Gibco). BJ cells were grown in EMEM (Lonza) supplemented with 10% FBS, penicillin and streptomycin. 293T cells were grown in DMEM supplemented with 10% FBS, penicillin, streptomycin, and glutamate. Cells were passaged every 3-4 days or when they reached 70%-80% confluence.
RB335 cells were seeded in 6-well dishes. Seeded cells were incubated overnight at 37 °C in a humidified 5% CO2 incubator. Cells were treated with DMSO alone, 1, 2.5, or 5 µM R406 and returned to the incubator. At 0, 6, 12, 18, 24, and 72 h, the drugged media was removed from a subset of samples (n=3 samples per cell line) and replaced with drug-free media, washing out the R406 for the remainder of the 72 h incubation. After 72 hours, cells were suspended and aliquoted into a 96 well plate assaying viability (50 µL of cells per well, each sample assayed in duplicate and averaged). Plates were equilibrated at room temperature for 20 min before addition of 50 μL Cell Titer Glo (Promega) to each well. Plates were shaken on an orbital shaker for 2 min at 500 rpm. Luminescence was read after 15 min on an Envision plate reader (Perkin Elmer). Dissociated cells were also stained for caspase and EdU. […]

SMILES: COc1cc(Nc2ncc(F)c(Nc3ccc4c(n3)NC(=O)C(C)(C)O4)n2)cc(OC)c1OC [R406]
- proportion of cells that incorporated EdU (RB355 cells): decreased with increasing exposure time
- time extracted samples were stable ([1]; extracted from murine vitreous, room temperature): at least 48 hours
- Accuracy% ([1]; extracted vitreous samples in autosampler for 2 days, injected at Day 3, High Control 3333.3 nM): 91.6%
- Accuracy% ([1]; extracted vitreous samples in autosampler for 2 days, injected at Day 3, Low Control 41.2 nM): 96.0%
- Accuracy% ([1]; extracted vitreous samples in autosampler for 2 days, injected at Day 3, Middle Control 370.4 nM): 88.8%
- Accuracy% ([1]; murine vitreous at -20°C, thawed on Day 2, injected at Day 3, High Control 3333.3 nM): 91.1%
- Accuracy% ([1]; murine vitreous at -20°C, thawed on Day 2, injected at Day 3, Low Control 41.2 nM): 109.4%
- Accuracy% ([1]; murine vitreous at -20°C, thawed on Day 2, injected at Day 3, Middle Control 370.4 nM): 93.2%
- Accuracy% ([1]; murine vitreous at -20°C, thawed on Day 3, injected at Day 3, High Control 3333.3 nM): 90.3%
- Accuracy% ([1]; murine vitreous at -20°C, thawed on Day 3, injected at Day 3, Low Control 41.2 nM): 96.6%
- Accuracy% ([1]; murine vitreous at -20°C, thawed on Day 3, injected at Day 3, Middle Control 370.4 nM): 94.4%
- Accuracy% ([1]; murine vitreous at -80°C, injected at Day 8, High Control 3333.3 nM): 96.4%
- Accuracy% ([1]; murine vitreous at -80°C, injected at Day 8, Low Control 41.2 nM): 78.7%
- Accuracy% ([1]; murine vitreous at -80°C, injected at Day 8, Middle Control 370.4 nM): 87.5%
- Accuracy% ([1]; murine vitreous at -80°C, injected at Day 15, High Control 3333.3 nM): 105.2%
- Accuracy% ([1]; murine vitreous at -80°C, injected at Day 15, Low Control 41.2 nM): 105.5%
- Accuracy% ([1]; murine vitreous at -80°C, injected at Day 15, Middle Control 370.4 nM): 99.4%
- time spiked samples were stable ([1]; murine vitreous stored at -20°C): at least 72 hours
- time spiked samples were stable ([1]; murine vitreous stored at -80°C): ≥ 14 days
- cytotoxicity ([2]; 1 μM R406, 48 – 72 h exposure, read-out: drop in viability compared to DMSO treated controls): ~20%
- reduction in viability compared to DMSO treated controls ([2]; 1 μM R406, up to 24 h exposure): no reduction in cell viability
